Results from patent US9060515B2, “Heterocyclic urea compounds” (BIOTA EUROPE LTD, priority 2011, dated 2015).
In brackets after ≈: the same amount, converted by molar mass.

What was measured:
Type in all cases: cell-based
E. faecalis (ATCC 29212) = assay: Antibacterial susceptibility testing (MIC, broth microdilution or agar dilution), E. faecalis; conditions: Enterococcus faecalis, ATCC29212; read-out: E. faecalis (ATCC 29212) minimal inhibitory concentration (MIC)
Protocol: (§1) Compounds of the invention were tested for antimicrobial activity by susceptibility testing in liquid or on solid media. MICs for compounds against each strain were determined by the broth microdilution or agar dilution method according to the guidelines of the Clinical Laboratories and Standards Institute, formerly the National Committee for Clinical Laboratory Standards (Clinical Laboratories and Standards Institute. Methods for Dilution Antimicrobial Susceptibility Tests for Bacteria That Grow Aerobically; Approved Standard—Seventh Edition. Document M7-A7. CLSI, Wayne, Pa., 2006; Clinical Laboratories and Standards Institute. The Gram positive bacterial strains tested include S. aureus (Staphylococcus aureus (Isolate ID ATCC 29213)), E. faecalis (Enterococcus faecalis (Isolate ID ATCC 29212)) and S. pyogenes (Streptococcus pyogenes (Isolate ID ATCC 51339)). The Gram negative bacterial strains tested include H. influenzae (Haemophilus influenzae (Isolate ID ATCC 49247)).

S. aureus (ATCC 29213) = assay: Antibacterial susceptibility testing (MIC, broth microdilution or agar dilution), S. aureus; conditions: Staphylococcus aureus, ATCC29213; read-out: S. aureus (ATCC 29213) minimal inhibitory concentration (MIC)
Protocol: as §1

S. pyogenes (ATCC 51339) = assay: Antibacterial susceptibility testing (MIC, broth microdilution or agar dilution), S. pyogenes; conditions: Streptococcus pyogenes, ATCC51339; read-out: S. pyogenes (ATCC 51339) minimal inhibitory concentration (MIC)
Protocol: as §1

SMILES	MIC (E. faecalis (ATCC 29212))	MIC (S. aureus (ATCC 29213))	MIC (S. pyogenes (ATCC 51339))
CCNC(=O)Nc1cc(Nc2ccccc2)c(C(=O)Nc2ccnc(C(=O)OC)c2)cn1 [Compound 21, methyl 4-(6-(3-ethylureido)-4-(phenylamino)nicotinamido)picolinate]	≤ 1 µg/mL	–	–
CCNC(=O)Nc1cc(Nc2ccccc2)c(C(=O)Nc2cncc(C(=O)OC)c2)cn1 [Compound 89, methyl 5-(6-(3-ethylureido)-4-(phenylamino)nicotinamido)nicotinate]	–	≤ 1 µg/mL	8 µg/mL (≈ 18.4 µM)
CCNC(=O)Nc1cc(Nc2ccc(C(=O)OCC)cc2)c(C(=O)Nc2cccnc2)cn1 [Compound 15, Ethyl 4-(2-(3-ethylureido)-5-(pyridin-3-ylcarbamoyl)pyridin-4-ylamino)benzoate]	–	≤ 1 µg/mL	≤ 1 µg/mL
CCNC(=O)Nc1cc(Nc2ccccc2)c(C(=O)Nc2ccc(N(C)C)nc2)cn1 [Compound 98, N-(6-(dimethylamino)pyridin-3-yl)-6-(3-ethylureido)-4-(phenylamino)nicotinamide]	–	≤ 1 µg/mL	≤ 1 µg/mL
CCNC(=O)Nc1cc(Nc2ccccc2)c(C(=O)Nc2ccc(Oc3ccc(F)cc3)nc2)cn1 [Compound 82]	–	2 µg/mL (≈ 4.11 µM)	8 µg/mL (≈ 16.4 µM)
CCNC(=O)Nc1cc(Nc2ccccc2)c(C(=O)Nc2ccnn2C)cn1 [Compound 10, 6-(3-Ethylureido)-N-(1-methyl-1H-pyrazol-5-yl)-4-(phenylamino)nicotinamide]	–	16 µg/mL (≈ 42.2 µM)	2 µg/mL (≈ 5.27 µM)
CCNC(=O)Nc1cc(Nc2ccccc2)c(C(=O)Nc2cncc(F)c2)cn1 [Compound 85, 6-(3-ethylureido)-N-(5-fluoropyridin-3-yl)-4-(phenylamino)nicotinamide]	–	≤ 1 µg/mL	≤ 1 µg/mL
CCNC(=O)Nc1cc(Nc2ccccc2)c(C(=O)Nc2ccc(C)cc2)cn1 [Compound 46, 6-(3-ethylureido)-4-(phenylamino)-N-p-tolylnicotinamide]	–	2 µg/mL (≈ 5.14 µM)	4 µg/mL (≈ 10.3 µM)
CCNC(=O)Nc1cc(Nc2ccc(OC)cc2)c(C(=O)Nc2cccnc2)cn1 [Compound 14, 6-(3-Ethylureido)-4-(4-methaxyphenylamino)-N-(pyridin-3-yl)nicotinamide]	–	4 µg/mL (≈ 9.84 µM)	2 µg/mL (≈ 4.92 µM)
CCNC(=O)Nc1cc(Nc2ccccc2)c(C(=O)Nc2cccc(C(F)(F)F)c2)cn1 [Compound 48, 6-(3-ethylureido)-4-(phenylamino)-N-(3-(trifluoromethyl)phenyl)nicotinamide]	–	≤ 1 µg/mL	8 µg/mL (≈ 18 µM)
CCNC(=O)Nc1cc(Nc2ccccc2)c(C(=O)Nc2ccc(-n3cncn3)nc2)cn1 [Compound 27, N-(6-(1H-1,2,4-triazol-1-yl)pyridin-3-yl)-6-(3-ethylureido)-4-(phenylamino)nicotinamide]	≤ 1 µg/mL	–	–
CCNC(=O)Nc1cc(Nc2ccccc2)c(C(=O)Nc2cc(F)cc(F)c2)cn1 [Compound 66, N-(3,5-difluorophenyl)-6-(3-ethylureido)-4-(phenylamino)nicotinamide]	–	≤ 1 µg/mL	4 µg/mL (≈ 9.72 µM)
CCNC(=O)Nc1cc(Nc2ccccc2)c(C(=O)NCc2ccncc2)cn1 [Compound 51, 6-(3-ethylureido)-4-(phenylamino)-N-(pyridin-4-ylmethyl)nicotinamide]	–	32 µg/mL (≈ 82 µM)	2 µg/mL (≈ 5.12 µM)
CCNC(=O)Nc1cc(Nc2ccccc2)c(C(=O)Nc2cncc(C)c2)cn1 [Compound 91, 6-(3-ethylureido)-N-(5-methylpyridin-3-yl)-4-(phenylamino)nicotinamide]	–	≤ 1 µg/mL	≤ 1 µg/mL
CCNC(=O)Nc1cc(Nc2ccccc2)c(C(=O)Nc2ccc(F)c(F)c2)cn1 [Compound 69, N-(3,4-difluorophenyl)-6-(3-ethylureido)-4-(phenylamino)nicotinamide]	–	≤ 1 µg/mL	4 µg/mL (≈ 9.72 µM)
CCNC(=O)Nc1cc(Nc2ccccc2)c(C(=O)Nc2ccc(NC(C)C)nc2)cn1 [Compound 95, 6-(3-ethylureido)-N-(6-(isopropylamino)pyridin-3-yl)-4-(phenylamino)nicotinamide]	–	2 µg/mL (≈ 4.61 µM)	≤ 1 µg/mL

Now from value to compound:

MIC (E. faecalis (ATCC 29212))	MIC (S. aureus (ATCC 29213))	MIC (S. pyogenes (ATCC 51339))	SMILES
2 µg/mL (≈ 4.2 µM)	8 µg/mL (≈ 16.8 µM)	–	CCNC(=O)Nc1cc(Nc2ccc(F)cc2)c(C(=O)Nc2ccc(CN3CCCC3)cc2)cn1 [Compound 200, 6-[(ethylcarbamoyl)amino]-4-[(4-fluorophenyl)amino]-N-[4-(pyrrolidin-1-ylmethyl)phenyl]pyridine-3-carboxamide]
8 µg/mL (≈ 21.3 µM)	–	–	CCNC(=O)Nc1cc(Nc2ccccc2)c(C(=O)Nc2ccccc2)nn1 [Compound 212, 6-[(ethylcarbamoyl)amino]-N-phenyl-4-(phenylamino)pyridazine-3-carboxamide]
≤ 1 µg/mL	–	–	CCNC(=O)Nc1cc(Nc2cc(F)cc(F)c2)c(C(=O)Nc2ccc(CCC(=O)OCC)cc2)cn1 [Compound 234, ethyl 3-{4-[({4-[(3,5-difluorophenyl)amino]-6-[(ethylcarbamoyl)amino]pyridin-3-yl}carbonyl)amino]phenyl}propanoate]
≤ 1 µg/mL	–	–	CCNC(=O)Nc1cc(Nc2ccc(F)cc2F)c(C(=O)Nc2ccc(CCC(=O)OCC)cc2)cn1 [Compound 227]
≤ 1 µg/mL	2 µg/mL (≈ 4.14 µM)	–	CCNC(=O)Nc1cc(Nc2ccc(C#N)cc2)c(C(=O)Nc2ccc(CN3CCCC3)cc2)cn1 [Compound 203, 4-[(4-cyanophenyl)amino]-6-[(ethylcarbamoyl)amino]-N-[4-(pyrrolidin-1-ylmethyl)phenyl]pyridine-3-carboxamide]
8 µg/mL (≈ 17 µM)	–	–	CCNC(=O)Nc1cc(Nc2ccccc2)c(C(=O)Nc2ccc(CP(=O)(O)O)cc2)cn1 [Compound 207, {4-[({6-[(ethylcarbamoyl)amino]-4-(phenylamino)pyridin-3-yl}carbonyl)amino]benzyl}phosphonic acid]
≤ 1 µg/mL	–	–	CCNC(=O)Nc1cc(Nc2ccc(F)c(C)c2)c(C(=O)Nc2ccc(CCC(=O)OCC)cc2)cn1 [Compound 218, ethyl 3-{4-[({6-[(ethylcarbamoyl)amino]-4-[(4-fluoro-3-methylphenyl)amino]pyridin-3-yl}carbonyl)amino]phenyl}propanoate]
≤ 1 µg/mL	–	–	CCNC(=O)Nc1cc(Nc2cccc(F)c2)c(C(=O)Nc2ccc(CCC(=O)OCC)cc2)cn1 [Compound 216, ethyl 3-{4-[({6-[(ethylcarbamoyl)amino]-4-[(3-fluorophenyl)amino]pyridin-3-yl}carbonyl)amino]phenyl}propanoate]
2 µg/mL (≈ 4.72 µM)	–	–	CCNC(=O)Nc1cc(Nc2ccccc2)c(C(=O)Nc2ccn(CC(=O)O)n2)cn1 [Compound 233, {3-[({6-[(ethylcarbamoyl)amino]-4-(phenylamino)pyridin-3-yl}carbonyl)amino]-1H-pyrazol-1-yl}acetic acid]
≤ 1 µg/mL	–	–	CCNC(=O)Nc1cc(Nc2ccc(C)c(F)c2)c(C(=O)Nc2ccc(CCC(=O)OCC)cc2)cn1 [Compound 217, ethyl 3-{4-[({6-[(ethylcarbamoyl)amino]-4-[(3-fluoro-4-methylphenyl)amino]pyridin-3-yl}carbonyl)amino]phenyl}propanoate]
–	8 µg/mL (≈ 16.8 µM)	4 µg/mL (≈ 8.39 µM)	CCNC(=O)Nc1cc(Nc2ccc(CCC(=O)OCC)cc2)c(C(=O)Nc2cccnc2)cn1 [Compound 131, ethyl 3-(4-(2-(3-ethylureido)-5-(pyridin-3-ylcarbamoyl)pyridin-4-ylamino)phenyl)propanoate]
≤ 1 µg/mL	4 µg/mL (≈ 9.25 µM)	–	CCNC(=O)Nc1cc(Nc2ccccc2)c(C(=O)Nc2ccc(C(=O)NC)cc2)cn1 [Compound 213, 6-[(ethylcarbamoyl)amino]-N-[4-(methylcarbamoyl)phenyl]-4-(phenylamino)pyridine-3-carboxamide]
–	≤ 1 µg/mL	≤ 1 µg/mL	CCNC(=O)Nc1cc(Nc2cccc(OC)c2)c(C(=O)Nc2cccnc2)cn1 [Compound 111, 6-(3-ethylureido)-4-(3-methoxyphenylamino)-N-(pyridin-3-yl)nicotinamide]
–	≤ 1 µg/mL	≤ 1 µg/mL	CCNC(=O)Nc1cc(Nc2ccccc2)c(C(=O)Nc2ccc(CCC(C)=O)cc2)cn1 [Compound 122, 6-(3-Ethylureido)-N-(4-(3-oxobutyl)phenyl)-4-(phenylamino)nicotinamide]
≤ 1 µg/mL	–	–	CCNC(=O)Nc1cc(Nc2ccc(Cl)cc2F)c(C(=O)Nc2ccc(CCC(=O)OCC)cc2)cn1 [Compound 219, ethyl 3-{4-[({4-[(4-chloro-2-fluorophenyl)amino]-6-[(ethylcarbamoyl)amino]pyridin-3-yl}carbonyl)amino]phenyl}propanoate]
–	2 µg/mL (≈ 4.48 µM)	≤ 1 µg/mL	CCNC(=O)Nc1cc(Nc2ccccc2)c(C(=O)Nc2ccc(CCC(N)=O)cc2)cn1 [Compound 118, N-(4-(3-amino-3-oxopropyl)phenyl)-6-(3-ethylureido)-4-(phenylamino)nicotinamide]
–	32 µg/mL (≈ 84.1 µM)	4 µg/mL (≈ 10.5 µM)	CCNC(=O)Nc1cc(Nc2cnn(C)c2)c(C(=O)Nc2cccnc2)cn1 [Compound 113, 6-(3-ethylureido)-4-(1-methyl-1H-pyrazol-4-ylamino)-N-(pyridin-3-yl)nicotinamide]
4 µg/mL (≈ 7.5 µM)	–	–	CCNC(=O)Nc1cc(Nc2ccc(Cl)cc2)c(C(=O)Nc2ccc(-n3cccc3C(=O)OC)cc2)cn1 [Compound 197, methyl 1-{4-[({4-[(4-chlorophenyl)amino]-6-[(ethylcarbamoyl)amino]pyridin-3-yl}carbonyl)amino]phenyl}-1H-pyrrole-2-carboxylate]
–	≤ 1 µg/mL	≤ 1 µg/mL	CCNC(=O)Nc1cc(Nc2ccccc2)c(C(=O)Nc2ccc(CCCO)cc2)cn1 [Compound 117, 6-(3-ethylureido)-N-(4-(3-hydroxypropyl)phenyl)-4-(phenylamino)nicotinamide]
